In US20230049917A1, “Pharmaceutical Composition of CASR Modulators and Methods and Uses Thereof” (Lupin Limited, priority 2019, published 2023):
Where two headings read alike, the source gives them in different places.

Legend:
[1] = cited from earlier work
[2] = Pharmacokinetic analysis after oral administration of the formulation to rats; format: in vivo; conditions: male, Sprague Dawley, rat, 5 mg/kg
Experimental: Male Sprague Dawley Rats (weight 225±25 gm; aged 8 to 10 weeks) were administered orally with the formulation. Each of the tested compounds was dosed at 5 mg/kg at a dose volume of 1 mL/kg. Blood samples were collected at time points 0.25, 0.5, 1, 2, 4, 6, 8 and 24 hours and analyzed the plasma concentrations of administered compound and calculated PK parameters. The plasma concentrations of the tested compounds were measured by liquid chromatography with tandem mass spectrometry (LCMS-MS) using […] extraction method. The plasma concentration-time data was subjected to Non-Compartmental Analysis using Phoenix WinNonlin® (Version 5.3) software to assess the pharmacokinetic parameters. Peak plasma concentrations (Cmax) and time for the peak plasma concentrations (Tmax) were the observed values. The area under the concentration time curve (AUC) was calculated by linear trapezoidal rule.

[3] = CKD patients not on dialysis, week 32

AUC(0-t) ([2]; in vivo, po)	Cmax ([2]; in vivo, po)	Tmax ([2]; in vivo, po)	SMILES	further results
–	–	–	C[C@@H](NCCCc1cccc(C(F)(F)F)c1)c1cccc2ccccc12 [Cinacalcet]	phosphorus levels [1, 3]: 4.5 ± 1.0 mg/dL; phosphorus levels, change [1, 3]: +21.4%; serum calcium levels, frequently observed ([1]; patients with CKD not on dialysis): < 8.4 mg/dL
–	–	–	C[C@@H](NC[C@H]1CN(c2cc(C(=O)O)cc(C(F)(F)F)c2)CCO1)c1cccc2ccccc12 [Compound 1, 3-((S)-2-((((R)-1-(naphthalen-1-yl)ethyl)amino)methyl)morpholino)-5-(trifluoromethyl)benzoic acid]	AUC(0-t) ([2]; oral, dose volume 1 mL/kg, plasma, sampling to 24 hours, read-out: AUC0-1): 7.3 ± 0.5 µM·h; Cmax ([2]; oral, plasma, read-out: Cmax): 3.6 ± 1 µM; Tmax ([2]; oral, plasma, read-out: Tmax): 15 to 60 min
16 ± 3 µM·h	4.9 ± 3 µM	15 min	Cc1ccc(N2C[C@H](CCN[C@H](C)c3cccc4ccccc34)Oc3ccccc32)cc1C(=O)O.Cl [Compound 2, 2-methyl-5-((S)-2-(2-(((R)-1-(naphthalen-1-yl)ethyl)amino)ethyl)-2H-benzo[b][1,4]oxazin-4(3H)-yl)benzoic acid]	–
5.5 ± 1 µM·h	1.5 ± 1 µM	30 to 120 min	COc1cc([C@@H](C)NC[C@@H]2Cc3ccccc3[C@H](c3ccc(C)c(C(=O)O)c3C)C2)ccc1F.Cl [Compound 4, 3-((1R,3S)-3-((((R)-1-(4-fluoro-3-methoxyphenyl)ethyl)amino)methyl)-1,2,3,4-tetrahydronaphthalen-1-yl)-2,6-dimethylbenzoic acid]	–
